Experimental data reported in ChEMBL document CHEMBL1817620, “Synthesis and cytotoxicity of 2-phenylquinazolin-4(3H)-one derivatives” (Eur J Med Chem, 2011).
The source made the active and inactive calls. The calls are words filed in the database; no cut-off is given here.

What was measured:
HCT-29 = test: Cytotoxicity against human HCT29 cells after 4 days by MTT assay; format: functional, cell-based; details: HCT-29, 96 h
HeLa [1] = test: Cytotoxicity against human HeLa cells after 4 days by MTT assay; format: functional, cell-based; details: 96 h
HL-60 = test: Cytotoxicity against human HL60 cells after 4 days by MTT assay; format: functional, cell-based; details: HL-60, 96 h
MDA-MB-231 = test: Cytotoxicity against human MDA-MB-231 cells after 4 days by MTT assay; format: functional, cell-based; details: MDA-MB-231, 96 h
DU-145 = test: Cytotoxicity against human DU145 cells after 4 days by MTT assay; format: functional, cell-based; details: DU-145, 96 h
HeLa [2] = test: Cell cycle arrest in human HeLa cells assessed as enhanced ratio of cell death at 10 umol after 72 hrs using propidium iodide staining by flow cytometry relative to control; format: functional
[3] = target: Poly [ADP-ribose] polymerase 1 (Homo sapiens) (UniProt P09874); test: Inhibition of PARP1
Chain of Poly [ADP-ribose] polymerase 1 (Homo sapiens) (P09874 whole entry): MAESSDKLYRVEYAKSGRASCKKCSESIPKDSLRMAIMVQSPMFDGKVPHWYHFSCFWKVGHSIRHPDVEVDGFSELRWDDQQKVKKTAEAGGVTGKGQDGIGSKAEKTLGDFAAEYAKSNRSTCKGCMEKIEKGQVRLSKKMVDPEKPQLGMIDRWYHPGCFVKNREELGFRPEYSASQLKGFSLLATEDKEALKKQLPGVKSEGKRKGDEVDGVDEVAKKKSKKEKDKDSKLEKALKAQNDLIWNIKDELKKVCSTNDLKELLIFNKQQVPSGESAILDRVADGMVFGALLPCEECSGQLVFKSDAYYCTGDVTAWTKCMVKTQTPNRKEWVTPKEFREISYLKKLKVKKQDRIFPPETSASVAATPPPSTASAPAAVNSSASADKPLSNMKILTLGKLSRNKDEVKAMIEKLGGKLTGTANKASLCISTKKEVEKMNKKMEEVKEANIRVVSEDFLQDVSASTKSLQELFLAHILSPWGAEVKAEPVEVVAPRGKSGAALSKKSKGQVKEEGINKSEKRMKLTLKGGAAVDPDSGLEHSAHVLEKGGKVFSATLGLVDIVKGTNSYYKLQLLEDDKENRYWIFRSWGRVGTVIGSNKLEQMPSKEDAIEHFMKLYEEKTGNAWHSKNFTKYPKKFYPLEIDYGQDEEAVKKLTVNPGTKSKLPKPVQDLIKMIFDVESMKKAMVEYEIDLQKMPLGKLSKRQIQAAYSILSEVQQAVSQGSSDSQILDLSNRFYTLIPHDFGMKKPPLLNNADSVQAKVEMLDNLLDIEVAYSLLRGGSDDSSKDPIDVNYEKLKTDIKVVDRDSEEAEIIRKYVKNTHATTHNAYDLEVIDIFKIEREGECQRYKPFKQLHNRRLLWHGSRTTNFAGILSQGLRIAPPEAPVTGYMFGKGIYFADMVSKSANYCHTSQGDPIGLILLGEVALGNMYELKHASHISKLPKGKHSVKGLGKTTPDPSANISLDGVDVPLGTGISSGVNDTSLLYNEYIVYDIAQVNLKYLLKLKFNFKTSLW

HeLa [4] = test: Cell cycle arrest in human HeLa cells assessed as fold increase in G1 phase at 10 umol after 36 hrs using propidium iodide staining by flow cytometry relative to control; format: functional

## O=C(c1ccc(-c2nc3ccccc3c(=O)[nH]2)cc1)N1CCN(S(=O)(=O)c2cccc3cccnc23)CC1
HCT-29
  IC50: > 50 µM
HeLa [1]
  IC50: 11.1 µM
HL-60
  IC50: 14.6 µM
MDA-MB-231
  IC50: 6.3 µM
DU-145
  IC50: 15.6 µM

## Cc1ccc(S(=O)(=O)N2CCN(C(=O)c3ccc(-c4nc5ccccc5c(=O)[nH]4)cc3)CC2)cc1
HCT-29
  IC50: 10.5 µM
HeLa [1]
  IC50: 23.5 µM
HL-60
  IC50: 8.4 µM
MDA-MB-231
  IC50: 43.5 µM
DU-145
  IC50: 18.1 µM

## O=C(c1ccc(-c2nc3ccccc3c(=O)[nH]2)cc1)N1CCN(S(=O)(=O)c2ccc(F)cc2)CC1
HCT-29
  IC50: 11.1 µM
HeLa [1]
  IC50: 35.4 µM
HL-60
  IC50: 10.9 µM
MDA-MB-231
  IC50: 27.7 µM
DU-145
  IC50: 35 µM

## CS(=O)(=O)N1CCN(C(=O)c2ccc(-c3nc4ccccc4c(=O)[nH]3)cc2)CC1
HCT-29
  IC50: > 50 µM
HeLa [1]
  IC50: > 50 µM
HL-60
  IC50: 11.6 µM
MDA-MB-231
  IC50: 6.4 µM
DU-145
  IC50: 20 µM

## Cn1c(-c2ccc(C(=O)N3CCN(S(=O)(=O)c4ccccc4)CC3)cc2)nc2ccccc2c1=O
HCT-29
  IC50: 13.3 µM
HeLa [1]
  IC50: 14.1 µM
HL-60
  IC50: 5.9 µM
MDA-MB-231
  IC50: 9.1 µM
DU-145
  IC50: 10.4 µM

## CC(C)(C)OC(=O)N1CCN(C(=O)c2ccc(-c3nc4ccccc4c(=O)[nH]3)cc2)CC1
HCT-29
  IC50: 20.7 µM
HeLa [1]
  IC50: 20.7 µM
HL-60
  IC50: 15.4 µM
MDA-MB-231
  IC50: 8.5 µM
DU-145
  IC50: > 50 µM

## CC(C)(C)OC(=O)N1CCN(C(=O)c2ccc(-c3nc4ccccc4c(=O)n3Cc3ccccc3)cc2)CC1
HCT-29
  IC50: > 50 µM
HeLa [1]
  IC50: 21.6 µM
HL-60
  IC50: 2.9 µM
MDA-MB-231
  IC50: 40.4 µM
DU-145
  IC50: > 50 µM

## O=C(c1ccc(-c2nc3ccccc3c(=O)[nH]2)cc1)N1CCN(S(=O)(=O)Cc2ccccc2)CC1
HCT-29
  IC50: 2.3 µM
HeLa [1]
  IC50: 9.1 µM
HeLa [2]
  Ratio: 7.04
[3]
  inhibition: inactive
HL-60
  IC50: 18.7 µM
MDA-MB-231
  IC50: 15.8 µM
HeLa [4]
  fold change (FC): 1.21
DU-145
  IC50: 7.7 µM

## O=C(c1ccc(-c2nc3ccccc3c(=O)[nH]2)cc1)N1CCN(S(=O)(=O)c2ccccc2C(F)(F)F)CC1
HCT-29
  IC50: > 50 µM
HeLa [1]
  IC50: 8.3 µM
HL-60
  IC50: 14.1 µM
MDA-MB-231
  IC50: 5.5 µM
DU-145
  IC50: 24.7 µM

## COc1cccc2c1C(=O)c1c(O)c3c(c(O)c1C2=O)C[C@@](O)(C(=O)CO)C[C@@H]3O[C@H]1C[C@H](N)[C@H](O)[C@H](C)O1 [DOXORUBICIN]
HCT-29
  IC50: 2.5 µM
HeLa [1]
  IC50: 3.7 µM
HL-60
  IC50: 0.8 µM
DU-145
  IC50: 1.9 µM

## COc1ccc(S(=O)(=O)N2CCN(C(=O)c3ccc(-c4nc5ccccc5c(=O)n4Cc4ccccc4)cc3)CC2)cc1
HCT-29
  IC50: 22.5 µM
HeLa [1]
  IC50: 34.2 µM
HL-60
  IC50: 6.1 µM
MDA-MB-231
  IC50: 48.1 µM
DU-145
  IC50: 16 µM

## O=C(c1ccc(-c2nc3ccccc3c(=O)[nH]2)cc1)N1CCNCC1
HCT-29
  IC50: > 50 µM
HeLa [1]
  IC50: > 50 µM
HL-60
  IC50: 16.7 µM
MDA-MB-231
  IC50: > 50 µM
DU-145
  IC50: 24.3 µM

## O=C(c1ccc(-c2nc3ccccc3c(=O)[nH]2)cc1)N1CCN(S(=O)(=O)c2ccc3ccccc3c2)CC1
HCT-29
  IC50: 16.5 µM
HeLa [1]
  IC50: 13.3 µM
HL-60
  IC50: 26.6 µM
MDA-MB-231
  IC50: > 50 µM
DU-145
  IC50: 27.8 µM

## COc1ccc(S(=O)(=O)N2CCN(C(=O)c3ccc(-c4nc5ccccc5c(=O)[nH]4)cc3)CC2)cc1
HCT-29
  IC50: 21.6 µM
HeLa [1]
  IC50: > 50 µM
HL-60
  IC50: 7.5 µM
MDA-MB-231
  IC50: 5.1 µM
DU-145
  IC50: 27 µM

## O=C(c1ccc(-c2nc3ccccc3c(=O)n2Cc2ccccc2)cc1)N1CCN(S(=O)(=O)c2ccccc2)CC1
HCT-29
  IC50: 23.6 µM
HeLa [1]
  IC50: 20.1 µM
HL-60
  IC50: 4.2 µM
MDA-MB-231
  IC50: 19.3 µM
DU-145
  IC50: 15.3 µM

## Cc1ccc(CS(=O)(=O)N2CCN(C(=O)c3ccc(-c4nc5ccccc5c(=O)[nH]4)cc3)CC2)cc1
HCT-29
  IC50: 19.5 µM
HeLa [1]
  IC50: 9 µM
HL-60
  IC50: 16.7 µM
MDA-MB-231
  IC50: 7.7 µM
DU-145
  IC50: 29.6 µM

## O=C(c1ccc(-c2nc3ccccc3c(=O)[nH]2)cc1)N1CCN(S(=O)(=O)Cc2ccc(Cl)cc2)CC1
HCT-29
  IC50: 12.6 µM
HeLa [1]
  IC50: 4.4 µM
HeLa [2]
  Ratio: 8.74
HL-60
  IC50: > 50 µM
MDA-MB-231
  IC50: > 50 µM
HeLa [4]
  fold change (FC): 1.2
DU-145
  IC50: 27.1 µM

## O=C(c1ccc(-c2nc3ccccc3c(=O)[nH]2)cc1)N1CCN(S(=O)(=O)c2ccc(C(F)(F)F)cc2)CC1
HCT-29
  IC50: 21.6 µM
HeLa [1]
  IC50: 13.4 µM
HL-60
  IC50: 6.5 µM
MDA-MB-231
  IC50: 31.4 µM
DU-145
  IC50: 14.9 µM

## CCCCS(=O)(=O)N1CCN(C(=O)c2ccc(-c3nc4ccccc4c(=O)[nH]3)cc2)CC1
HCT-29
  IC50: 10.3 µM
HeLa [1]
  IC50: 17.3 µM
HL-60
  IC50: 14.9 µM
MDA-MB-231
  IC50: 1.2 µM
DU-145
  IC50: 17.9 µM

## COc1ccc(Cn2c(-c3ccc(C(=O)N4CCN(S(=O)(=O)c5ccc(OC)cc5)CC4)cc3)nc3ccccc3c2=O)cc1
HCT-29
  IC50: 5.8 µM
HeLa [1]
  IC50: 16.5 µM
HeLa [2]
  Ratio: 7.29
HL-60
  IC50: 3.8 µM
MDA-MB-231
  IC50: 9.9 µM
HeLa [4]
  fold change (FC): 1.18
DU-145
  IC50: 5.8 µM

## O=C(c1ccc(-c2nc3ccccc3c(=O)[nH]2)cc1)N1CCN(S(=O)(=O)C2CC2)CC1
HCT-29
  IC50: > 50 µM
HeLa [1]
  IC50: > 50 µM
HL-60
  IC50: 10.8 µM
MDA-MB-231
  IC50: 8.2 µM
DU-145
  IC50: 6 µM

## Cn1c(-c2ccc(C(=O)N3CCN(C(=O)OC(C)(C)C)CC3)cc2)nc2ccccc2c1=O
HCT-29
  IC50: 28 µM
HeLa [1]
  IC50: 15.5 µM
HL-60
  IC50: 9.5 µM
MDA-MB-231
  IC50: 24.9 µM
DU-145
  IC50: 17.2 µM

## O=C(c1ccc(-c2nc3ccccc3c(=O)[nH]2)cc1)N1CCN(S(=O)(=O)c2ccc([N+](=O)[O-])cc2)CC1
HCT-29
  IC50: 2.6 µM
HeLa [1]
  IC50: 20 µM
[3]
  inhibition: inactive
HL-60
  IC50: 2 µM
MDA-MB-231
  IC50: 12.5 µM
DU-145
  IC50: 25.2 µM

## O=C(O)c1ccc(-c2nc3ccccc3c(=O)[nH]2)cc1
HCT-29
  IC50: 30.6 µM
HeLa [1]
  IC50: > 50 µM
HL-60
  IC50: 11.7 µM
MDA-MB-231
  IC50: > 50 µM
DU-145
  IC50: 28.1 µM

## O=C(c1ccc(-c2nc3ccccc3c(=O)[nH]2)cc1)N1CCN(S(=O)(=O)c2cccc3ccccc23)CC1
HCT-29
  IC50: 11.6 µM
HeLa [1]
  IC50: 11.7 µM
HL-60
  IC50: 7 µM
MDA-MB-231
  IC50: 22.2 µM
DU-145
  IC50: 9.9 µM

## COc1ccc(Cn2c(-c3ccc(C(=O)N4CCN(S(=O)(=O)c5ccccc5)CC4)cc3)nc3ccccc3c2=O)cc1
HCT-29
  IC50: 8.6 µM
HeLa [1]
  IC50: 2.9 µM
HeLa [2]
  Ratio: 6.83
HL-60
  IC50: 2.6 µM
MDA-MB-231
  IC50: 4.2 µM
HeLa [4]
  fold change (FC): 1.19
DU-145
  IC50: 2.5 µM

## CC(C)c1ccc(S(=O)(=O)N2CCN(C(=O)c3ccc(-c4nc5ccccc5c(=O)[nH]4)cc3)CC2)cc1
HCT-29
  IC50: 9 µM
HeLa [1]
  IC50: 17.2 µM
HL-60
  IC50: 2.6 µM
MDA-MB-231
  IC50: 9.4 µM
DU-145
  IC50: 16.2 µM

## O=C(c1ccc(-c2nc3ccccc3c(=O)[nH]2)cc1)N1CCN(S(=O)(=O)c2cccs2)CC1
HCT-29
  IC50: 15.7 µM
HeLa [1]
  IC50: > 50 µM
HL-60
  IC50: 2.2 µM
MDA-MB-231
  IC50: 9.4 µM
DU-145
  IC50: 21.3 µM

## O=C(c1ccc(-c2nc3ccccc3c(=O)[nH]2)cc1)N1CCN(S(=O)(=O)c2ccccc2)CC1
HCT-29
  IC50: 12.5 µM
HeLa [1]
  IC50: 8.9 µM
HL-60
  IC50: 14.3 µM
MDA-MB-231
  IC50: 32.6 µM
DU-145
  IC50: 7.1 µM

## O=C(c1ccc(-c2nc3ccccc3c(=O)[nH]2)cc1)N1CCN(S(=O)(=O)C2CCCC2)CC1
HCT-29
  IC50: 12.9 µM
HeLa [1]
  IC50: 11.2 µM
HeLa [2]
  Ratio: 5.96
HL-60
  IC50: 11.2 µM
MDA-MB-231
  IC50: 14.7 µM
HeLa [4]
  fold change (FC): 1.2
DU-145
  IC50: 4.8 µM

## COc1ccc(S(=O)(=O)N2CCN(C(=O)c3ccc(-c4nc5ccccc5c(=O)n4C)cc3)CC2)cc1
HCT-29
  IC50: 25.8 µM
HeLa [1]
  IC50: 23.7 µM
HL-60
  IC50: 5.9 µM
MDA-MB-231
  IC50: > 50 µM
DU-145
  IC50: 21.5 µM

## O=C(c1ccc(-c2nc3ccccc3c(=O)[nH]2)cc1)N1CCN(S(=O)(=O)c2ccc(Cl)cc2)CC1
HCT-29
  IC50: > 50 µM
HeLa [1]
  IC50: 18 µM
HL-60
  IC50: 13.6 µM
MDA-MB-231
  IC50: > 50 µM
DU-145
  IC50: > 50 µM

## CC(C)S(=O)(=O)N1CCN(C(=O)c2ccc(-c3nc4ccccc4c(=O)[nH]3)cc2)CC1
HCT-29
  IC50: > 50 µM
HeLa [1]
  IC50: 11 µM
HL-60
  IC50: 7.5 µM
MDA-MB-231
  IC50: 5.8 µM
DU-145
  IC50: 17.4 µM

## O=C(c1ccc(-c2nc3ccccc3c(=O)[nH]2)cc1)N1CCN(S(=O)(=O)c2cccc(C(F)(F)F)c2)CC1
HCT-29
  IC50: 9.5 µM
HeLa [1]
  IC50: 9.3 µM
HL-60
  IC50: 23.5 µM
MDA-MB-231
  IC50: > 50 µM
DU-145
  IC50: 14.1 µM
